This assay relates to CD2F1 mice, L1210 leukemia ip, survival T/C. Put plainly: NCI In Vivo Anticancer Drug Screen. Data for tumor model L1210 Leukemia (intraperitoneal) in CD2F1 (CDF1) mice. The conditions noted are these: higher = longer survival. The method, boiled down:
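Read-out first: treated-group measurement over vehicle-control measurement, expressed as a ratio. Animals bore a transplanted tumor line and were dosed with compound or vehicle.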

[1] abbreviates: endpoint: mean survival time, dose: 100.0 mg/kg/injection, schedule: Q04DX003 (ip), vehicle: saline.
The mark [2] stands for this setting: endpoint: mean survival time, dose: 200.0 mg/kg/injection, schedule: Q04DX003 (ip), vehicle: saline.
Setting [3] is: endpoint: mean survival time, dose: 400.0 mg/kg/injection, schedule: Q04DX003 (ip), vehicle: saline.
[4] abbreviates: endpoint: mean survival time, dose: 100.0 mg/kg/injection, schedule: Q04DX003 (ip), vehicle: saline with Tween-80.
Where [5] appears, read: endpoint: mean survival time, dose: 200.0 mg/kg/injection, schedule: Q04DX003 (ip), vehicle: saline with Tween-80.
[6] abbreviates: endpoint: mean survival time, dose: 400.0 mg/kg/injection, schedule: Q04DX003 (ip), vehicle: saline with Tween-80.

Each structure is given as a SMILES string. Values joined by “and” are separate entries in the source; they are usually repeats but may differ in a detail not shown here. Equal entries are not always repeated. Toxic doses and inconclusive results are not listed.

For the compound `O=C1O/C(=C\c2ccccc2)c2c(-c3ccccc3)ccc(-c3ccccc3)c21`, the T/C was 95 % of control (endpoint: mean survival time, dose: 100.0 mg/kg/injection, schedule: Q01DX001 (ip), vehicle: saline with Tween-80); 95 % of control (endpoint: mean survival time, dose: 200.0 mg/kg/injection, schedule: Q01DX001 (ip), vehicle: saline with Tween-80); 95 % of control (endpoint: mean survival time, dose: 400.0 mg/kg/injection, schedule: Q01DX001 (ip), vehicle: saline with Tween-80).

`C[C@H](N)C(=O)N[C@@H]1[C@H]2C(=C(O)C[C@@H](O)[C@@H]2O)C(=O)O[C@@H]1C`: the T/C was 113 % of control (endpoint: mean survival time, dose: 100.0 mg/kg/injection, schedule: Q01DX007 (ip), vehicle: saline); 118 % of control (endpoint: mean survival time, dose: 100.0 mg/kg/injection, schedule: Q01DX009 (ip), vehicle: saline); 107 % of control (endpoint: mean survival time, dose: 100.0 mg/kg/injection, schedule: Q03DX003 (ip), vehicle: saline); 106 % of control under setting [1]; 124 % of control (endpoint: mean survival time, dose: 200.0 mg/kg/injection, schedule: Q01DX007 (ip), vehicle: saline); 120 % of control (endpoint: mean survival time, dose: 200.0 mg/kg/injection, schedule: Q01DX009 (ip), vehicle: saline). Also, the T/C (endpoint: mean survival time, dose: 200.0 mg/kg/injection, schedule: Q03DX003 (ip), vehicle: saline) is 109 % of control; the T/C under setting [2] was 106 % of control; the T/C (endpoint: mean survival time, dose: 400.0 mg/kg/injection, schedule: Q03DX003 (ip), vehicle: saline) is 115 % of control; the T/C under setting [3] is 112 % of control; the T/C (endpoint: median survival time, dose: 75.0 mg/kg/injection, schedule: Q01DX009 (ip), vehicle: saline) is 103 % of control; the T/C (endpoint: median survival time, dose: 150.0 mg/kg/injection, schedule: Q01DX009 (ip), vehicle: saline) was 109 % of control. Moreover, the T/C runs as follows: (endpoint: median survival time, dose: 300.0 mg/kg/injection, schedule: Q01DX009 (ip), vehicle: saline) 119 % of control; (endpoint: median survival time, dose: 1200.0 mg/kg/injection, schedule: Q01DX009 (ip), vehicle: saline) 150 % of control and 166 % of control; (endpoint: median survival time, dose: 2400.0 mg/kg/injection, schedule: Q01DX009 (ip), vehicle: saline) 86 % of control.

Turning to `Cc1cccc(C)c1N=NN(C)C`, the T/C is 107 % of control (endpoint: mean survival time, dose: 6.25 mg/kg/injection, schedule: Q01DX009 (ip), vehicle: saline with Tween-80); 90 % of control (endpoint: mean survival time, dose: 12.5 mg/kg/injection, schedule: Q01DX009 (ip), vehicle: other); 104 % of control (endpoint: mean survival time, dose: 12.5 mg/kg/injection, schedule: Q01DX009 (ip), vehicle: saline with Tween-80); 100 % of control (endpoint: mean survival time, dose: 25.0 mg/kg/injection, schedule: Q01DX009 (ip), vehicle: other); 118 % of control (endpoint: mean survival time, dose: 25.0 mg/kg/injection, schedule: Q01DX009 (ip), vehicle: saline with Tween-80).

For the compound `CCn1c(=O)c2nc(Br)n(C3OCC(OC(C)=O)C(OC(C)=O)C3OC(C)=O)c2n(CC)c1=O` (stereo unspecified), the T/C is, setting by setting: (endpoint: mean survival time, dose: 12.5 mg/kg/injection, schedule: Q01DX005 (ip), vehicle: distilled water + Tween-80) 104 % of control; (endpoint: mean survival time, dose: 25.0 mg/kg/injection, schedule: Q01DX005 (ip), vehicle: distilled water + Tween-80) 104 % of control; (endpoint: mean survival time, dose: 50.0 mg/kg/injection, schedule: Q01DX005 (ip), vehicle: distilled water + Tween-80) 100 % of control; (endpoint: mean survival time, dose: 100.0 mg/kg/injection, schedule: Q01DX005 (ip), vehicle: distilled water + Tween-80) 93 % of control; (endpoint: mean survival time, dose: 200.0 mg/kg/injection, schedule: Q01DX005 (ip), vehicle: distilled water + Tween-80) 88 % of control.

Regarding `Cc1ccc(NC(=O)Oc2ccc(Br)cc2Br)c([N+](=O)[O-])c1`, the T/C is, setting by setting: (endpoint: mean survival time, dose: 50.0 mg/kg/injection, schedule: Q04DX003 (ip), vehicle: saline with Tween-80) 106 % of control; under setting [4], 104 % of control; under setting [5], 96 % of control; under setting [6], 100 % of control; (endpoint: median survival time, dose: 100.0 mg/kg/injection, schedule: Q01DX009 (ip), vehicle: saline with Tween-80) 98 % of control; (endpoint: median survival time, dose: 200.0 mg/kg/injection, schedule: Q01DX009 (ip), vehicle: saline with Tween-80) 100 % of control. Also, the T/C is 105 % of control (endpoint: median survival time, dose: 400.0 mg/kg/injection, schedule: Q01DX009 (ip), vehicle: saline with Tween-80) and 101 % of control (endpoint: median survival time, dose: 800.0 mg/kg/injection, schedule: Q01DX009 (ip), vehicle: saline with Tween-80).

For `CC(=O)N(C1=CC(=O)c2ccccc2C1=O)c1ccc(C)cc1`, the T/C is 100 % of control (endpoint: mean survival time, dose: 75.0 mg/kg/injection, schedule: Q01DX001 (ip), vehicle: saline) and 100 % of control (endpoint: mean survival time, dose: 150.0 mg/kg/injection, schedule: Q01DX001 (ip), vehicle: saline).

With `O=C1NC(=O)C2CC=CCC12` (stereo unspecified), the T/C by setting is: (endpoint: mean survival time, dose: 100.0 mg/kg/injection, schedule: Q01DX009 (ip), vehicle: saline with Tween-80) 96 % of control; (endpoint: mean survival time, dose: 200.0 mg/kg/injection, schedule: Q01DX009 (ip), vehicle: saline with Tween-80) 102 % of control; (endpoint: mean survival time, dose: 400.0 mg/kg/injection, schedule: Q01DX009 (ip), vehicle: saline with Tween-80) 102 % of control.

`O=[N+]([O-])c1cccc(C2=NNC(c3cccc([N+](=O)[O-])c3)=NN2)c1`: the T/C (endpoint: median survival time, dose: 50.0 mg/kg/injection, schedule: Q01DX001 (ip), vehicle: saline with Tween-80) was 88 % of control; the T/C (endpoint: median survival time, dose: 100.0 mg/kg/injection, schedule: Q01DX001 (ip), vehicle: saline with Tween-80) is 92 % of control; the T/C (endpoint: median survival time, dose: 200.0 mg/kg/injection, schedule: Q01DX001 (ip), vehicle: saline with Tween-80) is 94 % of control; the T/C (endpoint: median survival time, dose: 400.0 mg/kg/injection, schedule: Q01DX001 (ip), vehicle: saline with Tween-80) was 95 % of control; the T/C (endpoint: median survival time, dose: 800.0 mg/kg/injection, schedule: Q01DX001 (ip), vehicle: saline with Tween-80) is 98 % of control.

With `c1ccc(CCCNc2nnnc3ccccc23)cc1`, the T/C was 95 % of control (endpoint: mean survival time, dose: 100.0 mg/kg/injection, schedule: Q04DX002 (ip), vehicle: saline with Tween-80); 103 % of control (endpoint: mean survival time, dose: 200.0 mg/kg/injection, schedule: Q04DX002 (ip), vehicle: saline with Tween-80); 91 % of control (endpoint: mean survival time, dose: 400.0 mg/kg/injection, schedule: Q04DX002 (ip), vehicle: saline with Tween-80).

Regarding `CCCCCC(O)C(O)CC(O)C(O)CCCCCCCC(=O)O` (stereo unspecified), the T/C is, setting by setting: under setting [1], 94 % of control; under setting [2], 91 % of control; under setting [3], 100 % of control.

Regarding `O=C(O)c1c(O)cccc1O`, the T/C runs as follows: (endpoint: mean survival time, dose: 50.0 mg/kg/injection, schedule: Q01DX001 (ip), vehicle: saline) 98 % of control; (endpoint: mean survival time, dose: 100.0 mg/kg/injection, schedule: Q01DX001 (ip), vehicle: saline) 98 % of control; (endpoint: mean survival time, dose: 200.0 mg/kg/injection, schedule: Q01DX001 (ip), vehicle: saline) 101 % of control.

Take `COC(=O)C(CSC(c1ccccc1)(c1ccccc1)c1ccccc1)NC(=O)CCNC(=O)OCc1ccccc1` (stereo unspecified): the T/C was 93 % of control (endpoint: mean survival time, dose: 12.5 mg/kg/injection, schedule: Q01DX009 (ip), vehicle: water); 91 % of control (endpoint: mean survival time, dose: 25.0 mg/kg/injection, schedule: Q01DX009 (ip), vehicle: water); 90 % of control (endpoint: mean survival time, dose: 50.0 mg/kg/injection, schedule: Q01DX009 (ip), vehicle: water); 90 % of control (endpoint: mean survival time, dose: 100.0 mg/kg/injection, schedule: Q01DX009 (ip), vehicle: water).

As for `CCCCCCCCCCCC[n+]1c(C)cc(N)c2ccccc21`, the T/C is 103 % of control (endpoint: mean survival time, dose: 1.25 mg/kg/injection, schedule: Q01DX001 (ip), vehicle: other) and 101 % of control (endpoint: mean survival time, dose: 5.0 mg/kg/injection, schedule: Q01DX001 (ip), vehicle: other).

For the compound `Cn1c(=O)[nH]c2c(nc(-c3ccccc3)n2C)c1=O`, the T/C by setting is: (endpoint: mean survival time, dose: 12.5 mg/kg/injection, schedule: Q01DX005 (ip), vehicle: other) 87 % of control; (endpoint: mean survival time, dose: 25.0 mg/kg/injection, schedule: Q01DX005 (ip), vehicle: other) 96 % of control; (endpoint: mean survival time, dose: 50.0 mg/kg/injection, schedule: Q01DX005 (ip), vehicle: other) 89 % of control; (endpoint: mean survival time, dose: 100.0 mg/kg/injection, schedule: Q01DX005 (ip), vehicle: other) 94 % of control.

Consider `Nc1cnc2nc(N)[nH]c(=O)c2c1`, for which the T/C was 97 % of control (endpoint: mean survival time, dose: 100.0 mg/kg/injection, schedule: Q01DX009 (ip), vehicle: saline sonified); 93 % of control under setting [4]; 102 % of control (endpoint: mean survival time, dose: 200.0 mg/kg/injection, schedule: Q01DX009 (ip), vehicle: saline sonified); 93 % of control under setting [5]; 93 % of control (endpoint: mean survival time, dose: 400.0 mg/kg/injection, schedule: Q01DX009 (ip), vehicle: saline sonified); 95 % of control under setting [6].

Values taken from PubChem BioAssay AID256 (DTP/NCI, 2004).
